Measured values published in ChEMBL document CHEMBL4017469, “First insight into structure-activity relationships of selective meprin β inhibitors” (Bioorg Med Chem Lett, 2017).
Values belong to the compound of their own block, whether it stands above or below them.

Columns and labels:
Meprin A subunit beta [1] = molecular target: T1, Meprin A subunit beta (Homo sapiens, UniProt Q16820); assay: Inhibition of recombinant human meprin beta expressed in yeast using Abz-YVAEAPK(Dnp)G-OH as substrate by fluorescence assay
T1 sequence (Q16820 whole entry): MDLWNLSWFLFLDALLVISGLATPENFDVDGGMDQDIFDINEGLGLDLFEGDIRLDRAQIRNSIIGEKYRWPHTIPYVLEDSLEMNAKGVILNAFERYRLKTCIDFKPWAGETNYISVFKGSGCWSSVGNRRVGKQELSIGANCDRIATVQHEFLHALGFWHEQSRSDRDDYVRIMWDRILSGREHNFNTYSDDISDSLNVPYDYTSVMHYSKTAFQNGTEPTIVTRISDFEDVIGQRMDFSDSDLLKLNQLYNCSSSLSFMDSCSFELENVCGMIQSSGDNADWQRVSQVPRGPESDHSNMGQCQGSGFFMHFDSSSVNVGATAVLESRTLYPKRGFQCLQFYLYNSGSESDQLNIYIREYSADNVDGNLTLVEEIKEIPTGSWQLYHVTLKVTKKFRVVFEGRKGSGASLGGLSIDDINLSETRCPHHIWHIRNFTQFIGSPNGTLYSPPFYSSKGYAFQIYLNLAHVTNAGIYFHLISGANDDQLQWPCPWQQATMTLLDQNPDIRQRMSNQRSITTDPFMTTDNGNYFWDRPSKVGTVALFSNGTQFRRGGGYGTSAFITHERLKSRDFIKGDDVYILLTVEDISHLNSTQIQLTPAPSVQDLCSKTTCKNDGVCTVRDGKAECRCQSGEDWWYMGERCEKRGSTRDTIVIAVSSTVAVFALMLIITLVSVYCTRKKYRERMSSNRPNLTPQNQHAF

Meprin A subunit beta [2] = molecular target: T1, Meprin A subunit beta; assay: Inhibition of human meprin beta expressed in baculovirus infected BTI-TN-5B1-4 insect cells using N-benzoyl-L-tyrosylp-aminobenzoic acid as substrate
Meprin A subunit alpha = molecular target: T2, Meprin A subunit alpha (Homo sapiens, UniProt Q16819); assay: Inhibition of recombinant human meprin alpha expressed in S2 insect cells using Abz-YVADAPK(Dnp)G-OH as substrate by fluorescence assay
T2 sequence (Q16819 whole entry): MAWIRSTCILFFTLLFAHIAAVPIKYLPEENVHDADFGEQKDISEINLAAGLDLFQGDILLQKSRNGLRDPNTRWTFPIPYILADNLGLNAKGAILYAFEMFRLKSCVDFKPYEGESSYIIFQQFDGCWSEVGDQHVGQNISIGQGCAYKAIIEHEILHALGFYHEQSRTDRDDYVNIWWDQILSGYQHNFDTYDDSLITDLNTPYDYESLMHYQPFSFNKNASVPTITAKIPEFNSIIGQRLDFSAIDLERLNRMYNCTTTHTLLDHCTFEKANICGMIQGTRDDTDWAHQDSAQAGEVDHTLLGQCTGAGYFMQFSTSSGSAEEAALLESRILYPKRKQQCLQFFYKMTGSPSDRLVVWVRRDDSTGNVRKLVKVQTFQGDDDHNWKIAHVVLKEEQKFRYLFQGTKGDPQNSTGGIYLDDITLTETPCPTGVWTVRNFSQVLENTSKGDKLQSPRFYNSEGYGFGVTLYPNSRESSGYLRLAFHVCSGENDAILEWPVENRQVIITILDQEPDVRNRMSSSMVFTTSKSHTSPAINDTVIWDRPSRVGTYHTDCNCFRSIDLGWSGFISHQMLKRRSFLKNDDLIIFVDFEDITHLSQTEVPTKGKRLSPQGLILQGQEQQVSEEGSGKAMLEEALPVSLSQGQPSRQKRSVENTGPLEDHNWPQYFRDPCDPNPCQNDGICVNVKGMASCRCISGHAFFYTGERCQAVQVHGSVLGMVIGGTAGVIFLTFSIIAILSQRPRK

Homo sapiens [3] = organism: Homo sapiens; assay: Selectivity ratio of IC50 for recombinant human meprin alpha expressed in S2 insect cells to IC50 for recombinant human meprin beta expressed in yeast
[4] = molecular target: T3, 72 kDa type IV collagenase (Homo sapiens, UniProt P08253); assay: Inhibition of APMA-activated recombinant human MMP2 expressed in CHO cells at 200 uM using Mca-PLGL-(DapDnp)-AR-NH2 as substrate by fluorescence assay
T3 sequence (P08253 whole entry): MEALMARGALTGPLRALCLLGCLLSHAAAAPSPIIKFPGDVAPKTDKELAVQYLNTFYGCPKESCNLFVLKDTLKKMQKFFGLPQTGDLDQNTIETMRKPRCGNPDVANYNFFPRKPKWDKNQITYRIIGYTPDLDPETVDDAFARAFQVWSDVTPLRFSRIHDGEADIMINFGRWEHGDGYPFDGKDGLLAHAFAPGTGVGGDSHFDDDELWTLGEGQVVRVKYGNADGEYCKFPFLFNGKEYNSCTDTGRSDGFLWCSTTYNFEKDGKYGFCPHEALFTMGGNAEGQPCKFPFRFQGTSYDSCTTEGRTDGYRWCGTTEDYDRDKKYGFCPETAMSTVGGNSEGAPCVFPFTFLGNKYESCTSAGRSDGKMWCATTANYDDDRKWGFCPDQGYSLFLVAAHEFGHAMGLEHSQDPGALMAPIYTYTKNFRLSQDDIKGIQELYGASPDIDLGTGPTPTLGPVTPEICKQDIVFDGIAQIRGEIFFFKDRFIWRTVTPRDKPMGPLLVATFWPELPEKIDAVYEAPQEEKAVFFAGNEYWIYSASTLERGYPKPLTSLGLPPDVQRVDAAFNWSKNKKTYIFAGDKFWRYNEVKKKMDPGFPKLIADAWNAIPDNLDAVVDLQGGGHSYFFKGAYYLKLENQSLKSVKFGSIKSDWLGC

[5] = molecular target: T4, Matrix metalloproteinase-9 (Homo sapiens, UniProt P14780); assay: Inhibition of APMA-activated recombinant human MMP9 expressed in CHO cells at 200 uM using Mca-PLGL-(DapDnp)-AR-NH2 as substrate by fluorescence assay
T4 sequence (P14780 whole entry): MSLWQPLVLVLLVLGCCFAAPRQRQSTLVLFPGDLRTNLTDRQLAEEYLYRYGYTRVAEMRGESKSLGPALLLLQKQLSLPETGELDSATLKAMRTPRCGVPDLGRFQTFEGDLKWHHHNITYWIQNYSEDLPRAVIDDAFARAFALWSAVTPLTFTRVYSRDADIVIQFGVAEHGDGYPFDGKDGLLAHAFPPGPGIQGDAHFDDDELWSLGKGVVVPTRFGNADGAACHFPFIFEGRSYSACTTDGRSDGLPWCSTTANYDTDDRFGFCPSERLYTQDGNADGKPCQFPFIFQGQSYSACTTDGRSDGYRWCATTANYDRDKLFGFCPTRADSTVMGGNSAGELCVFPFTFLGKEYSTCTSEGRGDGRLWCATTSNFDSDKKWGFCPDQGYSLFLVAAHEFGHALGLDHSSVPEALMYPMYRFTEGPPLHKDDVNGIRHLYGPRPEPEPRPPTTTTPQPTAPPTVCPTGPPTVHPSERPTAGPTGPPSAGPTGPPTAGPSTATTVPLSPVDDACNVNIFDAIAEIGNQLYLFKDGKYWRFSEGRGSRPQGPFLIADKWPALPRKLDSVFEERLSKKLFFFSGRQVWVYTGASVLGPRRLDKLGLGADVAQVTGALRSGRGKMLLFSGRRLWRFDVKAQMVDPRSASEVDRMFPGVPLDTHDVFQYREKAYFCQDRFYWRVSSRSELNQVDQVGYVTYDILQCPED

Collagenase 3 [6] = molecular target: T5, Collagenase 3 (Homo sapiens, UniProt P45452); assay: Inhibition of APMA-activated recombinant human MMP13 expressed in mouse NS0 cells at 200 uM using Mca-PLGL-(DapDnp)-AR-NH2 as substrate by fluorescence assay
[7] = molecular target: T6, Disintegrin and metalloproteinase domain-containing protein 10 (Homo sapiens, UniProt O14672); assay: Inhibition of recombinant human C-terminal His10-tagged ADAM10 expressed in baculovirus infected Sf21 cells at 200 uM using Abz-LANAVRSSSR-(DapDnp)-NH2 as substrate by fluorescence assay
T6 sequence (O14672 whole entry): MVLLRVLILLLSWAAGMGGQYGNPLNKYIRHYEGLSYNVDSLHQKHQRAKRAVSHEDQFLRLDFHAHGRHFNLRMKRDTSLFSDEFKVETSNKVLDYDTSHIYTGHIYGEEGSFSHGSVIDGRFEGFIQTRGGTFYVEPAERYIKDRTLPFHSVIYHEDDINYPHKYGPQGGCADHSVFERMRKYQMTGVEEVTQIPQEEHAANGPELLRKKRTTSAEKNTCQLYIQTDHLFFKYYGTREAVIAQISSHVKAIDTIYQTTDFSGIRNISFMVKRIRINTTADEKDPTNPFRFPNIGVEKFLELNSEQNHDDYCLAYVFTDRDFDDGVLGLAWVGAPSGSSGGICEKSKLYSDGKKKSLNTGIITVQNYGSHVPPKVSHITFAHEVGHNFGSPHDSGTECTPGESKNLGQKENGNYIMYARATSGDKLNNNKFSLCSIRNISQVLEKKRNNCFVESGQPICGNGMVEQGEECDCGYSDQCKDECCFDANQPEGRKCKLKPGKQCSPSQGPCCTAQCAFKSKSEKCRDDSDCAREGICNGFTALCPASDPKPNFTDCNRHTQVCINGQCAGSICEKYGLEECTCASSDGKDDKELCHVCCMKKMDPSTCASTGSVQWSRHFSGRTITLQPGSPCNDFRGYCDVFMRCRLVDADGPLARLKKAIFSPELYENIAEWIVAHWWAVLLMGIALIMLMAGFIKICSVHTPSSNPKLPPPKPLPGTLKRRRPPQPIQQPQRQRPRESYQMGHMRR

[8] = molecular target: T7, Disintegrin and metalloproteinase domain-containing protein 17 (Homo sapiens, UniProt P78536); assay: Inhibition of recombinant human C-terminal His6-tagged ADAM17 expressed in baculovirus infected Sf21 cells at 200 uM using Abz-LANAVRSSSR-(DapDnp)-NH2 as substrate by fluorescence assay
T7 sequence (P78536 whole entry, the tested form may be a part): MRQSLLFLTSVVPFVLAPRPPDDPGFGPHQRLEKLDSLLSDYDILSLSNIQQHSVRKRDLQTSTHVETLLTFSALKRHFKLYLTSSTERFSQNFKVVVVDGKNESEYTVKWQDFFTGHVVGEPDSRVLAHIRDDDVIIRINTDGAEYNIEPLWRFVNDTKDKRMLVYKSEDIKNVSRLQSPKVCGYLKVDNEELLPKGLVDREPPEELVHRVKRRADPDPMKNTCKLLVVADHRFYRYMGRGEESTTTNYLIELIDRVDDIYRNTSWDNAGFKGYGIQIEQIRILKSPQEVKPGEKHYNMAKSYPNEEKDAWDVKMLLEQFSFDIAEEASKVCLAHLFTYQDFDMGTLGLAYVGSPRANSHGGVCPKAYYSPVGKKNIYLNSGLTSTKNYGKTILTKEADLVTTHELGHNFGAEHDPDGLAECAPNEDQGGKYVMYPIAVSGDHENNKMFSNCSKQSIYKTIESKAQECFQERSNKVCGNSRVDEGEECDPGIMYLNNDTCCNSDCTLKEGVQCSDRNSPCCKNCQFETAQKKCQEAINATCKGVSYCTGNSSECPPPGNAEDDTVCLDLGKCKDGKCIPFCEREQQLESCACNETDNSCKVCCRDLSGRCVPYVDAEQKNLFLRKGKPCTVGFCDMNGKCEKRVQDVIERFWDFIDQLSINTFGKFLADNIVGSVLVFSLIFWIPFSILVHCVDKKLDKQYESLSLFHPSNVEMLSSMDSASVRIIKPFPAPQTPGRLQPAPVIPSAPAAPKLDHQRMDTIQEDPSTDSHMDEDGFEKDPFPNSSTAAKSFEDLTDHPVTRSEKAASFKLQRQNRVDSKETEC

Homo sapiens [9] = organism: Homo sapiens; assay: Selectivity ratio of IC50 for recombinant human C-terminal His10-tagged ADAM10 expressed in baculovirus infected Sf21 cells to IC50 for recombinant human meprin beta expressed in yeast
Homo sapiens [10] = organism: Homo sapiens; assay: Selectivity ratio of IC50 APMA-activated recombinant human MMP2 expressed in CHO cells to IC50 for recombinant human meprin beta expressed in yeast; format: cell-based
[11] = molecular target: T3, 72 kDa type IV collagenase; assay: Inhibition of APMA-activated recombinant human MMP2 expressed in CHO cells using Mca-PLGL-(DapDnp)-AR-NH2 as substrate by fluorescence assay
[12] = molecular target: T4, Matrix metalloproteinase-9; assay: Inhibition of APMA-activated recombinant human MMP9 expressed in CHO cells using Mca-PLGL-(DapDnp)-AR-NH2 as substrate by fluorescence assay
Collagenase 3 [13] = molecular target: T5, Collagenase 3; assay: Inhibition of APMA-activated recombinant human MMP13 expressed in mouse NS0 cells using Mca-PLGL-(DapDnp)-AR-NH2 as substrate by fluorescence assay
[14] = molecular target: T6, Disintegrin and metalloproteinase domain-containing protein 10; assay: Inhibition of recombinant human C-terminal His10-tagged ADAM10 expressed in baculovirus infected Sf21 cells using Abz-LANAVRSSSR-(DapDnp)-NH2 as substrate by fluorescence assay
[15] = molecular target: T7, Disintegrin and metalloproteinase domain-containing protein 17; assay: Inhibition of recombinant human C-terminal His6-tagged ADAM17 expressed in baculovirus infected Sf21 cells using Abz-LANAVRSSSR-(DapDnp)-NH2 as substrate by fluorescence assay
Meprin A subunit beta [16] = molecular target: T1, Meprin A subunit beta; assay: Inhibition of recombinant human meprin beta expressed in baculovirus infected Sf9 insect cells using (MCA)-EDEDED-(K-epsilon-dnp) as substrate by fluorescence assay

SMILES: CCCCC[C@H](CC(=O)NO)C(=O)N[C@H](C(=O)N1CCC[C@H]1CO)C(C)C [ACTINONIN]
Ki (Meprin A subunit beta [2]): 2 µM

SMILES: COc1ccc(S(=O)(=O)N(CCc2ccccc2)CC(=O)NO)cc1
IC50 (Meprin A subunit beta [1]): 42.9 µM

SMILES: O=C(CN(Cc1cccc(C(=O)O)c1)S(=O)(=O)c1cccc(C(=O)O)c1)NO
IC50 (Meprin A subunit alpha): 27.4 µM | Ratio IC50 (Homo sapiens [3]): 500 | inhibition (INH) [4]: Not Active | inhibition (INH) [5]: Not Active | inhibition (INH) (Collagenase 3 [6]): Not Active | inhibition (INH) [7]: Not Active | inhibition (INH) [8]: Not Active | Ratio IC50 (Homo sapiens [9]): > 100 | Ratio IC50 (Homo sapiens [10]): > 100

SMILES: COc1ccc(S(=O)(=O)N(CC(=O)NO)Cc2cccc(C(=O)O)c2)cc1
IC50 [11]: 0.002 µM | IC50 (Meprin A subunit alpha): 3.29 µM | IC50 [12]: 0.05 µM | IC50 (Collagenase 3 [13]): 0.0003 µM | IC50 [14]: 11.7 µM | IC50 [15]: 1.24 µM | Ratio IC50 (Homo sapiens [3]): 60 | Ratio IC50 (Homo sapiens [9]): > 100

SMILES: COc1ccc(S(=O)(=O)N(CC(=O)NO)Cc2ccc(C(=O)O)cc2)cc1
IC50 (Meprin A subunit beta [1]): 0.98 µM

SMILES: O=C(CCNS(=O)(=O)c1ccc(C(=O)O)cc1)NO
IC50 (Meprin A subunit beta [1]): 0.34 µM

SMILES: COc1ccc(S(=O)(=O)N(C)CC(=O)NO)cc1
IC50 (Meprin A subunit beta [1]): 32.5 µM

SMILES: O=C(Nc1cc(C(=O)Nc2ccc(S(=O)(=O)O)cc2S(=O)(=O)O)cc(C(=O)Nc2ccc(S(=O)(=O)O)cc2S(=O)(=O)O)c1)Nc1cc(C(=O)Nc2ccc(S(=O)(=O)O)cc2S(=O)(=O)O)cc(C(=O)Nc2ccc(S(=O)(=O)O)cc2S(=O)(=O)O)c1
Ki (Meprin A subunit beta [16]): 0.022 µM

SMILES: O=C(CN(Cc1cccc(C(=O)O)c1)S(=O)(=O)c1ccc(C(=O)O)cc1)NO
IC50 (Meprin A subunit beta [1]): 0.32 µM

Other lines, results leading:

IC50 (Meprin A subunit beta [1]): 0.4 µM
SMILES: O=C(CCNS(=O)(=O)c1cc(Cl)c(O)c(Cl)c1)NO

IC50 (Meprin A subunit beta [1]): 0.31 µM
SMILES: O=C(CNS(=O)(=O)c1cccc(C(=O)O)c1)NO

IC50 (Meprin A subunit beta [1]): 0.22 µM
SMILES: O=C(CCNS(=O)(=O)c1cccc(C(=O)O)c1)NO

IC50 (Meprin A subunit beta [1]): 17.2 µM
SMILES: O=C(CNS(=O)(=O)c1ccc(Cl)cc1)NO

IC50 (Meprin A subunit beta [1]): 0.43 µM
SMILES: O=C(CNS(=O)(=O)c1cc(Cl)c(O)c(Cl)c1)NO

IC50 (Meprin A subunit beta [1]): 5.03 µM
SMILES: O=C(O)Cc1ccc(S(=O)(=O)NCC(=O)NO)cc1
